This is an account of results in PMC11731258, “The structural basis for high-affinity c-di-GMP binding to the GSPII-B domain of the traffic ATPase PilF from Thermus thermophilus” (The Journal of Biological Chemistry, 2024).

The target of test [1] is T1, PilF1-482 (GSPII-A, -B, -C; lacks ATPase domain) (Thermus thermophilus, UniProt Q5SLC9).
T1 sequence (Q5SLC9 1-482): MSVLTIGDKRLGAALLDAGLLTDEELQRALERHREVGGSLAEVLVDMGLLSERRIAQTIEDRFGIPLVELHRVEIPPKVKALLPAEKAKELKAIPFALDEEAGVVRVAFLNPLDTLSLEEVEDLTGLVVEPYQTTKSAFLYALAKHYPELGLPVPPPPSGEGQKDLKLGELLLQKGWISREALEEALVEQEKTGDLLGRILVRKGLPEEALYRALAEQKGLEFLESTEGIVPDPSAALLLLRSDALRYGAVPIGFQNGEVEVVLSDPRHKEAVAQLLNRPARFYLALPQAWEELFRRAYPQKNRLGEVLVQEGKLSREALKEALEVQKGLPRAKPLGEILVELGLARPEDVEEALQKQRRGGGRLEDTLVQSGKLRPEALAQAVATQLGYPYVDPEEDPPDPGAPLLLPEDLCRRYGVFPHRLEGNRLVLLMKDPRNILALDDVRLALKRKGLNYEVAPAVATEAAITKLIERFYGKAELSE
The test is described as follows: ITC binding to PilF1-482. Conditions: 20 °C; for Kd: pH 7.5, two-site model. How it is done: (§1) To assess the ligand-binding capabilities of the various PilF constructs, triplicates of ITC measurements were recorded for each construct. The measurements were carried out using a MicroCal ITC200 (Malvern Panalytical). All ITC experiments were conducted at 20 °C with 50 mM Tris-HCl pH 7.5, 200 mM sodium chloride, 1 mM β-mercaptoethanol as the sample buffer. All protein samples were extensively dialyzed against the sample buffer and the buffer used for dialysis was used to dilute protein and c-di-GMP samples in preparation for the ITC measurements. Each measurement was conducted using the following protocol. In total, 39.8 μl c-di-GMP were titrated to 270 μl protein in 20 separate injections in 180 s intervals with a stirring speed of 750 rpm. After an initial delay of 120 s, the first injection of 0.2 μl c-di-GMP with a duration of 0.4 s was followed by 19 injections of 2 μl with a duration of 4 s. During the measurement, the feedback mode was set to high and the reference power to 11 μcal s^−1. To optimize precision of the measurements, protein and c-di-GMP concentrations were adjusted to the binding capabilities of the respective constructs and ranged from 5 to 200 μM for protein and 50 to 2000 μM for c-di-GMP. All thermograms were processed using Origin 7.0 (OriginLab) using a one-site– or two-site–binding model dependent on the number of expected binding events.

In test [2] the target is T2, PilF159-302 D266A (Thermus thermophilus, UniProt Q5SLC9, D266A).
T2 sequence (Q5SLC9 159-302 D266A): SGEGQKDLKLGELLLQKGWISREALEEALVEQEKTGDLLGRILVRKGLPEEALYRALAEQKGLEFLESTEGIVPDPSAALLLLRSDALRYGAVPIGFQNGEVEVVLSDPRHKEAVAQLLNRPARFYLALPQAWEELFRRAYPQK
In words: ITC binding to PilF159-302 D266A. Conditions: 20 °C. How it is done:
as §1

Molecules are shown by their SMILES. Read-outs that look alike come from different tables or passages of the source.

`Nc1nc2c(ncn2[C@@H]2O[C@@H]3COP(=O)(O)O[C@H]4[C@@H](O)[C@H](n5cnc6c(=O)[nH]c(N)nc65)O[C@@H]4COP(=O)(O)O[C@H]3[C@H]2O)c(=O)[nH]1` [c-di-GMP, cyclic dimeric guanosine monophosphate]: in test [1] (Table S1 site 1), the “N, site 1” value worked out at 0.98 ± 0.04; the “ΔH, site 1” value was -12.793 ± 0.095 kcal/mol; the “ΔS, site 1” value is -14.6 ± 0.2 cal/mol/deg. For the same compound, in test [1] (Table S1 site 2), the “N, site 2” value was 0.85 ± 0.03; the “ΔH, site 2” value is -17.536 ± 0.128 kcal/mol; the “ΔS, site 2” value is reported as -24.3 ± 0.3 cal/mol/deg. Further, the Kd – broadly, the constant that tells how readily two partners part at equilibrium – in test [1] (read-out: KD, high-affinity site (KD1 in text; site 2 in Table S1)) is 17 ± 1 nM. In test [1] (read-out: KD, low-affinity site (KD2 in text; site 1 in Table S1)), the Kd amounted to 461 ± 36 nM. Besides, in test [2], the N turned out to be 0.95 ± 0.05, the ΔH was -9.995 ± 0.161 kcal/mol and the ΔS was 0.6 ± 0.4 cal/mol/deg. In test [2] (pH 7.5), this compound came in with a Kd of 27 ± 2 nM.
